Read-outs that look alike come from different tables or passages of the source. Bounds are passed on as bounds.

The test system of one data set is arterial blood pressure. Briefly: Hypotensive activity on anaesthetized normotensive rats. Format: in vivo, Sprague-Dawley male rats. Particulars: 10 mg/kg, jugular vein injection. The protocol: Sprague-Dawley male rats (CR) were anaesthetized intraperitoneally with pentabarbital sodium (60 mg/kg) and a jugular vein was catheterized for the injection of the product, and a cartoid artery was catheterized for recording the arterial blood pressure. The test product was dissolved in 10% ethanol and then injected in a volume of 1 ml/kg.

Data set [1] has as its system disturbances of the cardiac rhythm. Briefly: Anti-arrhythmic action in the rat (aconitine perfusion). Format: in vivo, male rats. As to the method:
Male rats weighing 300-350 g were anesthetized intra-peritoneally with 1.20 g/kg of urethane, then tracheotomized and submitted to artificial respiration (40-50 breaths of 3 ml/minute). Needles were implanted subcutaneously so as to record the electro-cardiogram of the rats on the DII derivation signal. The products under test were administered intravenously or orally.
Five minutes after the administration of the product intravenously or 1 hour after administration orally, the jugular vein of the rats was perfused with 10 μg/minute from 0.2 ml of a solution of aconitine, and the time of appearance of disturbances of the cardiac rhythm was noted, (10 μg of aconitine corresponding to a perfusion of 0.2 ml of solution). The results are expressed as a percentage of the extension of the time of appearance of the disturbances of the cardiac rhythm as compared with controls, and as a function of the dose of the product under test.

Data set [2] deals with T1, beta1-adrenergic receptors (Rattus norvegicus, UniProt P18090).
T1 construct: 10 cortexes removed from the brains of male rats weighing 150 g on average were homogenized; from tissue; host or cells: rat brain cortex, crude membrane fraction
T1 sequence (P18090 whole entry): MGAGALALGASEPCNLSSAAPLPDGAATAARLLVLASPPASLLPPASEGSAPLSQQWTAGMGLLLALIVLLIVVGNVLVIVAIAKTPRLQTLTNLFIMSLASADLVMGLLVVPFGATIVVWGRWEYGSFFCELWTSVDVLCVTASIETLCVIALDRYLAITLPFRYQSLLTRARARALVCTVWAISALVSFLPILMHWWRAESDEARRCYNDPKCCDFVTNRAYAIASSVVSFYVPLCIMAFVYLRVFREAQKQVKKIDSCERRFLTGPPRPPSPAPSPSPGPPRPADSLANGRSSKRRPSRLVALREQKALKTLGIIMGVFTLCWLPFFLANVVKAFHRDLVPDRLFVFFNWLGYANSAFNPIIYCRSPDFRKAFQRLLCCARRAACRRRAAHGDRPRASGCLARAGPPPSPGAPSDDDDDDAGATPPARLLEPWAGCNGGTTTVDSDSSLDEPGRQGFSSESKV
In words: Affinity for beta1-adrenergic receptors ([3H]dihydroalprenolol binding, brain cortex). The following applies: relative to propanolol, [3H]dihydroalprenolol 10^-9 M. As to the method: (§1) The technique is modelled on that of Mohler et al [Science., Vol. 198, p. 849-851 (1977)]. 10 cortexes removed from the brains of male rats weighing 150 g on average were homogenized in 90 ml of 0.32M sucrose and after centrifugation of the homogenized mixture at 1,000 g for 20 minutes at 0° C., the supernatant was centrifuged at 30,000 g for 15 minutes at 0° to +4° C. The pellet was suspended in 120 ml of 50 mM Tris-HCl buffer pH 7.7, and centrifuged at 30,000 g for 15 minutes at 0° to +4° C. The new pellet was suspended in 480 ml of 50 mM Krebs Tris-HCl buffer pH 7.7. 2 ml of the suspension were then incubated for 10 minutes at 37° C. in the presence of [^3 H] dihydroalprenolol at a concentration of 10^-9 M, i) alone, ii) with increasing concentrations of the test product or iii) to determine the non-specific binding, with non-radioactive propanolol at a concentration of 10^-5 M. The incubated suspensions were filtered on Whatman GF/C, and the filters were washed three times with 5 ml of Krebs Tris-HCl buffer pH 7.7 at 0° C.
The radioactivity of the filters was measured by liquid scintillation. The affinity of the test product for beta1 -adrenergic receptors is given relative to propanolol as the reference product.
(§2) CD=concentration of propanolol inhibiting 50% of the specific binding of [^3 H]dihydroalprenolol.
CX=concentration of the test product inhibiting 50% of the specific binding of […].
The relative affinity is given by the relation [formula]

Data set [3] has as its target T2, beta2-adrenergic receptors (Rattus norvegicus, UniProt P10608).
T2 construct: The cerebella removed from the brains of male rats weighing 150 g on average were homogenized; from tissue; host or cells: rat cerebellum, crude membrane fraction
In words: Affinity for beta2-adrenergic receptors ([3H]dihydroalprenolol binding, cerebella). Particulars: relative to propanolol, [3H]dihydroalprenolol 10^-9 M. The protocol: as §1, with “The technique was modelled on” for “The technique is modelled on”, “et al [Science, Vol. 198,” for “et al [Science., Vol. 198,”, “849-851 (1977)]. The cerebella removed from” for “849-851 (1977)]. 10 cortexes removed from”, “ml of suspension were” for “ml of the suspension were”, “of [^3 H]dihydroalprenolol at a” for “of [^3 H] dihydroalprenolol at a”, “binding, with non-radio active propranolol at a” for “binding, with non-radioactive propanolol at a”
The radioactivity of the filters was measured by liquid scintillation. The affinity of the test product for beta2 -adrenergic receptors was given relative to propanolol as the reference product.
as §2
CX=concentration of the test product inhibiting 50% of the specific binding of [^3 H]dihydroalprenolol.
The relative affinity is given by the relation ARL=100 CD/CX

Another data set concerns Rat caudal arteries. Briefly: Test of calcium-antagonistic activity in vitro (K+ depolarized caudal arteries). It is filed as cell-based. The following applies: 100 mM K+, 37° C., read-out: IC50, inhibition of the contraction due to K+ ions. The protocol: Calcium chloride was added in a volume of 250 μl to obtain a series of increasing concentrations of Ca^2+ ions ranging from 0.1 to 3.0 mM. The contractions of the arteries were recorded and a control series were thus established. The operation was repeated with the series of CA^2+ ions every 15 minutes and the preparation was washed four times after each series. When a stable response was obtained, the operation with the series of CA^2+ ions was performed in the presence of different concentrations of the test product, until a stable response was obtained.
The contractions of the arteries depend on the entry of Ca^2+ ions into the cells of the smooth muscles, and were caused by the depolarization of the smooth muscle by the K^+ ions and by the action of the noradrenaline released at presynaptic level. By starting the operation again with arteries denervated by the action of 6-OH-dopamine, the specific action due to noradrenaline was eliminated.

The next data set concerns mice. Briefly: Study of the acute toxicity. It is filed as in vivo. The following applies: oral. The protocol:
The lethal doses LD50 of the different compounds tested were evaluated after administration orally to mice. The maximum dose not causing any mortality in 8 days was called the LD0 and the following results were obtained.

The mark [4] stands for this setting: read-out: Percentage of prolongation in the time.
Setting [5] is: iv, read-out: Percentage extension of the time of appearance of disturbances of the cardiac rhythm.

T2 sequence (P10608 whole entry): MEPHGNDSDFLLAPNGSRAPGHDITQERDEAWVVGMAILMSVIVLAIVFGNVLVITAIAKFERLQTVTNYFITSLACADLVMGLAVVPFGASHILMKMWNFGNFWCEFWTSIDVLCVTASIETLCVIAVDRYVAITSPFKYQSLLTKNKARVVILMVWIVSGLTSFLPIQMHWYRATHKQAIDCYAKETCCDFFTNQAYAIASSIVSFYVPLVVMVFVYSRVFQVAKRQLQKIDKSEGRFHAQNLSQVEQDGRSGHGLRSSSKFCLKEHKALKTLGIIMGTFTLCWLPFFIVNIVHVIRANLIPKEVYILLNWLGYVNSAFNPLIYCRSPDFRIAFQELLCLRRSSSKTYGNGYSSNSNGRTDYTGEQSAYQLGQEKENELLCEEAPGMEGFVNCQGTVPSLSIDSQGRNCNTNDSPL

Turning to `CC(C)(C)NCC(O)COc1ccccc1C(=O)Nc1cccc2[nH]ccc12` (centres unmarked) [Example 17, 2-[3-[(1,1-dimethylethyl)amino]-2-hydroxypropoxy]-N-(1H-indol-4-yl) benzamide benzoate], the “variation of the arterial blood pressure, 5 mins after administration” value in the data set on arterial blood pressure (5 min) was -55 percentage. Further, the “variation of the arterial blood pressure, 30 min. after administration” value in the data set with arterial blood pressure (30 min) is -13 percentage.

For the compound `CCC(C)(C)NCC(O)COc1ccccc1C(=O)Nc1cccc2[nH]ccc12.O=C(O)c1ccccc1` (centres unmarked) [Example 48, 2-[3-[(1,1-Dimethylpropyl)amino]-2-hydroxypropoxy]-N-(1H-indol-4-yl)benzamide benzoate], in data set [1] (setting [4]), the change in vivo at 2.5 mg/kg came to 53% and the change in vivo at 5 mg/kg came to 79%. In addition, the “ARL (relative affinity for beta1-adrenergic receptors)” value in data set [2] came out at 20%. The “ARL (relative affinity for beta2-adrenergic receptors, 100 CD/CX)” value in data set [3] amounted to 27%.

For the compound `Cn1ccc2c(NC(=O)c3ccccc3OCC(O)CNC(C)(C)C)cccc21` (centres unmarked) [Example 34, 2-[3-[1,1-Dimethylethylamino]-2-hydroxypropoxy]-N-(1-methyl-1H-indol-4-yl) benzamide], in data set [1] (setting [4]), the change in vivo at 2.5 mg/kg was found to be 12%, the change in vivo at 5 mg/kg came to 43% and the change in vivo at 10 mg/kg was 125%. Also, the “ARL (relative affinity for beta1-adrenergic receptors)” value in data set [2] is listed as 44%. Besides, in data set [3], the “ARL (relative affinity for beta2-adrenergic receptors, 100 CD/CX)” value was 81%. The IC50 with Rat caudal arteries came out at 8.8 µM. For the same compound, in the data set with mice, the “LD0 (maximum dose not causing any mortality in 8 days)” value is listed as 80 mg/kg.

In the case of `CC(C)(C)NCCCCOc1ccccc1C(=O)Nc1cccc2[nH]ccc12` [Example 33, 2[4-[1,1-Dimethylethylamino]butoxy]-N-(1H-indol-4-yl)benzamide], in data set [1] (setting [4]), the change in vivo at 5 mg/kg worked out at 54% and the change in vivo at 10 mg/kg worked out at 99%. Besides, in the data set with Rat caudal arteries, the 50% inhibitory concentration (IC50) stood at 6.3 µM. The “LD0 (maximum dose not causing any mortality in 8 days)” value in the data set on mice is above 400 mg/kg.

As for `CCC(C)(C)NCC(O)COc1ccccc1C(=O)Nc1cccc2[nH]ccc12` (centres unmarked) [Example 28, 2-[3-[(1,1-dimethylpropyl)amino]-2-hydroxypropoxy]-N-(1H-indol-4-yl) benzamide], in data set [1] (setting [5]), the change in vivo at 1 mg/kg was 14%, the change in vivo at 2.5 mg/kg is 54% and the change in vivo at 5 mg/kg was determined as 95%. In addition, in data set [2], the “ARL (relative affinity for beta1-adrenergic receptors)” value came out at 28%. Further, in data set [3], the “ARL (relative affinity for beta2-adrenergic receptors, 100 CD/CX)” value amounted to 15%. Besides, the IC50 in the data set with Rat caudal arteries stood at 2.5 µM. Moreover, in the data set on mice, the “LD0 (maximum dose not causing any mortality in 8 days)” value is recorded as above 400 mg/kg.

Turning to `CCC(C)(C)NCCCOc1ccccc1C(=O)Nc1cccc2[nH]ccc12` [Example 30, 2-[3-[(1,1-dimethylpropyl)amino]-propoxy]-N-(1H-indol-4-yl)benzamide], in data set [1] (setting [5]), the change in vivo at 2.5 mg/kg came to 38%, the change in vivo at 5 mg/kg was 99% and the change in vivo at 10 mg/kg turned out to be 147%. The IC50 in the data set with Rat caudal arteries was 8 µM. In addition, in the data set on mice, the “LD0 (maximum dose not causing any mortality in 8 days)” value is 80 mg/kg.

Regarding `O=C(Nc1cccc2[nH]ccc12)c1ccccc1OCCCNCC1CCCCC1` [Example 32, 2-[3-[Cyclohexylmethylamino]-propoxy)-N-(1H-indol-4-yl)benzamide], in data set [1] (setting [5]), the change in vivo at 1 mg/kg turned out to be 43%, the change in vivo at 2.5 mg/kg worked out at 71%, the change in vivo at 5 mg/kg was 97% and the change in vivo at 6.5 mg/kg came to 28%. Further, the IC50 in the data set on Rat caudal arteries is 3.9 µM. For the same compound, in the data set on mice, the “LD0 (maximum dose not causing any mortality in 8 days)” value turned out to be 100 mg/kg.

The record behind these values is patent US5084455A, “Novel indole carboxamides” (Roussel Uclaf, priority 1985, dated 1992).
